From patent US9969694B2, “N-(arylalkyl)-N′-pyrazolyl-urea, thiourea, guanidine and cyanoguanidine compounds as TrkA kinase inhibitors” (Array BioPharma Inc., priority 2012, dated 2018)

molecular target: T1, His-tagged recombinant human TrkA (Homo sapiens, UniProt P04629); assay: TrkA Kinase Binding Assay (LanthaScreen Eu); conditions: averaged IC50; TR-FRET binding, 60 min, 22° C.; read-out: TrkA Enzyme IC50
T1 construct: 6HIS tagged cytoplasmic domain from Invitrogen, Catalog No. PV3144; purchased Invitrogen PV3144
Procedure: TrkA binding activity was determined in a TrkA LanthaScreen™ Eu Kinase Binding Assay. 5 nM His-tagged recombinant human TrkA (6HIS tagged cytoplasmic domain from Invitrogen, Catalog No. PV3144) was incubated with 4 nM Alexa-Fluor® Tracer 236 (Invitrogen Cat. No. PV5592), 2 nM biotinylated anti-His (Invitrogen Cat. No. PV6090), and 2 nM europium-labeled Streptavidin (Invitrogen Cat. No. PV5899), in buffer (25 mM MOPS, pH 7.5, 5 mM MgCl2, 0.005% Triton X-100). Three fold serial dilutions of compounds of the invention in DMSO were added to a final percentage of 2% DMSO. After 60-minute incubation at 22° C., the reaction was measured using the EnVision mutlimode plate reader (PerkinElmer) via TR-FRET dual wavelength detection at […]. The percent of control was calculated using a ratiometric emission factor. The IC50 values were determined by fitting a four parameter model to the percent of control data.
Table A provides averaged IC50 values for compounds of the invention when tested in the assay of Example A, where A represents an averaged IC50 value <100 nM; B represents an averaged IC50 value from 100 to 1,000 nM; and C represents an average 1050 value above 1000 nM.

T1 sequence (P04629 440-796 limits assumed): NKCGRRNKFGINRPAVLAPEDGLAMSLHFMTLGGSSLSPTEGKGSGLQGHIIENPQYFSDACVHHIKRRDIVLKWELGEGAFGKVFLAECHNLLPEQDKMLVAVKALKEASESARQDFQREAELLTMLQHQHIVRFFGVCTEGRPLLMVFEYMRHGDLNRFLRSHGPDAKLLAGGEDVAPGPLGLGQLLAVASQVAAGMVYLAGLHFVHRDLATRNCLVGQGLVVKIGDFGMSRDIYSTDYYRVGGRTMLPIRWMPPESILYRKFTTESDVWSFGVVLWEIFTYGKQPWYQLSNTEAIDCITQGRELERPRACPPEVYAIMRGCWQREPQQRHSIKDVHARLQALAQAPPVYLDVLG

Compared with `Cc1c(-c2cnn(C)c2)nn(-c2ccccc2)c1NC(=O)NCC1CCCc2ccccc21` (centres unmarked) [Example 44, 1-(1′,4-dimethyl-1-phenyl-1H,1′H-3,4′-bipyrazol-5-yl)-3-((1,2,3,4-tetrahydronaphthalen-1-yl)methyl)urea], `Cc1c(-c2cnn(C)c2)nn(-c2ccccc2)c1NC(=O)NCc1ccncc1C1CCC1` [Example 37, 1-((3-cyclobutylpyridin-4-yl)methyl)-3-(1′,4-dimethyl-1-phenyl-1H,1′H-[3,4′-bipyrazol]-5-yl)ureaea] is higher in IC50: less than 100 nM for the first, 100 to 1000 nM for the second. The first is the more potent here.

`COCc1ccc(OC(F)(F)F)c(CNC(=O)Nc2c(C)c(OC[C@H](O)CO)nn2-c2ccccc2)c1` [Example 65, (R)-1-(3-(2,3-dihydroxypropoxy)-4-methyl-1-phenyl-1H-pyrazol-5-yl)-3-(5-(methoxymethyl)-2-(trifluoromethoxy)benzyl)urea] and `COCc1ccc(OC(F)(F)F)c(CNC(=O)Nc2c(C)c(OC[C@H](N)CO)nn2-c2ccccc2)c1` [Example 109, (R)-1-(3-(2-amino-3-hydroxypropoxy)-4-methyl-1-phenyl-1H-pyrazol-5-yl)-3-(5-(methoxymethyl)-2-(trifluoromethoxy)benzyl)urea] cannot be ordered by IC50: less than 100 nM for the first, less than 100 nM for the second.

`COCc1ccc(OC(F)(F)F)c(CNC(=O)Nc2c(C)c(O[C@@H]3CCN(C)C[C@H]3F)nn2-c2ccccc2)c1` [Example 98, 1-(3-(((3R,4R)-3-fluoro-1-methylpiperidin-4-yl)oxy)-4-methyl-1-phenyl-1H-pyrazol-5-yl)-3-(5-(methoxymethyl)-2-(trifluoromethoxy)benzyl)urea] and `COCc1ccc(OC(F)(F)F)c(CNC(=O)Nc2c(C)c(O[C@H]3CNC[C@H]3F)nn2-c2ccccc2)c1` [Example 80, 1-(3-(((3S,4R)-4-fluoropyrrolidin-3-yl)oxy)-4-methyl-1-phenyl-1H-pyrazol-5-yl)-3-(5-(methoxymethyl)-2-(trifluoromethoxy)benzyl)urea] cannot be ordered by IC50: less than 100 nM for the first, less than 100 nM for the second.

`COCc1ccc(C2CCC2)c(CNC(=O)Nc2c3c(nn2-c2ccccc2)CSC3)c1` [Example 120, 1-(2-cyclobutyl-5-(methoxymethyl)benzyl)-3-(2-phenyl-4,6-dihydro-2H-thieno[3,4-c]pyrazol-3-yl)urea] and `COCc1ccc(C2CCC2)c(CNC(=O)Nc2c(C)c(=O)[nH]n2-c2ccccc2)c1` [Example 122, 1-(2-cyclobutyl-5-(methoxymethyl)benzyl)-3-(4-methyl-5-oxo-2-phenyl-2,5-dihydro-1H-pyrazol-3-yl)urea] cannot be ordered by IC50: less than 100 nM for the first, less than 100 nM for the second.

First: COCc1ccc(C2CC(F)(F)C2)c(CNC(=O)Nc2c(C)c(-c3cnn(C)c3)nn2-c2ccccc2)c1 [Example 38, 1-(2-(3,3-difluorocyclobutyl)-5-(methoxymethyl)benzyl)-3-(1′,4-dimethyl-1-phenyl-1H,1′H-[3,4′-bipyrazol]-5-yl)urea]
Second: COCc1ccc(OC2CCC2)c(CNC(=O)Nc2c(C)c(-c3cnn(C)c3)nn2-c2ccccc2)c1 [Example 18, 1-(2-cyclobutoxy-5-(methoxymethyl)benzyl)-3-(1′,4-dimethyl-1-phenyl-1H,1′H-[3,4′-bipyrazol]-5-yl)urea]
The IC50 of the first is lower: less than 100 nM for the first, 100 to 1000 nM for the second.

First: COC(C)c1ccc(C2CCC2)c(CNC(=O)Nc2c(C)c(-c3cnc(C)nc3)nn2-c2ccccc2)c1 (centres unmarked) [Example 16, 1-(2-cyclobutyl-5-(1-methoxyethyl)benzyl)-3-(4-methyl-3-(2-methylpyrimidin-5-yl)-1-phenyl-1H-pyrazol-5-yl)urea]
Second: COCc1ccc(OCC2CC2)c(CNC(=O)Nc2c(C)c(-c3cnn(C)c3)nn2-c2ccccc2)c1 [Example 14, 1-(2-(cyclopropylmethoxy)-5-(methoxymethyl)benzyl)-3-(1′,4-dimethyl-1-phenyl-1H,1′H-[3,4′-bipyrazol]-5-yl)urea]
The IC50 of the first is higher: 100 to 1000 nM for the first, less than 100 nM for the second.

`COCc1ccc(OC(F)F)c(CNC(=O)Nc2c(C)c(OCC3CCNCC3)nn2-c2ccccc2)c1` [Example 105, 1-(2-(difluoromethoxy)-5-(methoxymethyl)benzyl)-3-(4-methyl-1-phenyl-3-(piperidin-4-ylmethoxy)-1H-pyrazol-5-yl)urea] and `COCc1ccc(OC(F)(F)F)c(CNC(=O)Nc2c(C)c(OCC3CCN(C)CC3)nn2-c2ccccc2)c1` [Example 93, 1-(5-(methoxymethyl)-2-(trifluoromethoxy)benzyl)-3-(4-methyl-3-((1-methylpiperidin-4-yl)methoxy)-1-phenyl-1H-pyrazol-5-yl)urea] cannot be ordered by IC50: less than 100 nM for the first, less than 100 nM for the second.

`CCOc1nn(-c2ccccc2)c(NC(=O)NCc2cc(COC)ccc2C2CC2)c1C` [Example 2, 1-(2-cyclopropyl-5-(methoxymethyl)benzyl)-3-(3-ethoxy-4-methyl-1-phenyl-1H-pyrazol-5-yl)urea] and `COCc1ccc(OC(F)(F)F)c(CNC(=O)Nc2c(C)c(OC[C@@H](C)N)nn2-c2ccccc2)c1` [Example 97, (R)-1-(3-(2-aminopropoxy)-4-methyl-1-phenyl-1H-pyrazol-5-yl)-3-(5-(methoxymethyl)-2-(trifluoromethoxy)benzyl)urea] cannot be ordered by IC50: less than 100 nM for the first, less than 100 nM for the second.

`COCc1ccc(OC(F)(F)F)c(CNC(=O)Nc2c(C)c(O[C@@H]3CCNC3)nn2-c2ccccc2)c1` [Example 84, (R)-1-(5-(methoxymethyl)-2-(trifluoromethoxy)benzyl)-3-(4-methyl-1-phenyl-3-(pyrrolidin-3-yloxy)-1H-pyrazol-5-yl)urea] and `COCc1ccc(OC(F)(F)F)c(CNC(=O)Nc2c(C)c(OC3CC4(CCN4)C3)nn2-c2ccccc2)c1` (centres unmarked) [Example 90, 1-(3-(1-azaspiro[3.3]heptan-6-yloxy)-4-methyl-1-phenyl-1H-pyrazol-5-yl)-3-(5-(methoxymethyl)-2-(trifluoromethoxy)benzyl)urea] cannot be ordered by IC50: less than 100 nM for the first, less than 100 nM for the second.

`COCc1ccc(OC(F)(F)F)c(CNC(=O)Nc2c(C)c(OC3CC4(CCN4C)C3)nn2-c2ccccc2)c1` (centres unmarked) [Example 94, 1-(5-(methoxymethyl)-2-(trifluoromethoxy)benzyl)-3-(4-methyl-3-((1-methyl-1-azaspiro[3.3]heptan-6-yl)oxy)-1-phenyl-1H-pyrazol-5-yl)urea 2,2,2-trifluoroacetate] and `COCc1ccc(OC(F)(F)F)c(CNC(=O)Nc2c(C)c(OC3CN4CCC3CC4)nn2-c2ccccc2)c1` (centres unmarked) [Example 130, 1-(5-(methoxymethyl)-2-(trifluoromethoxy)benzyl)-3-(4-methyl-1-phenyl-3-(quinuclidin-3-yloxy)-1H-pyrazol-5-yl)urea] cannot be ordered by IC50: less than 100 nM for the first, less than 100 nM for the second.

`COCc1ccc(OC(F)(F)F)c(CNC(=O)Nc2c(C)c(OC[C@H]3CCNC[C@H]3F)nn2-c2ccccc2)c1` [Example 88, 1-(3-(((3S,4R)-3-fluoropiperidin-4-yl)methoxy)-4-methyl-1-phenyl-1H-1-pyrazol-5-yl)-3-(5-(methoxymethyl)-2-(trifluoromethoxy)benzyl)urea 2,2,2-trifluoroacetate] and `COCc1ccc(OC(F)(F)F)c(CNC(=O)Nc2c(C)c(OC[C@@H]3COCCN3)nn2-c2ccccc2)c1` [Example 103, (S)-1-(5-(methoxymethyl)-2-(trifluoromethoxy)benzyl)-3-(4-methyl-3-(morpholin-3-ylmethoxy)-1-phenyl-1H-pyrazol-5-yl)urea] cannot be ordered by IC50: less than 100 nM for the first, less than 100 nM for the second.

For `COCc1ccc(CNCC(F)(F)F)c(CNC(=O)Nc2c(C)c(-c3cnn(C)c3)nn2-c2ccccc2)c1` [Example 119, 1-(1′,4-dimethyl-1-phenyl-1H,1′H-[3,4′-bipyrazol]-5-yl)-3-(5-(methoxymethyl)-2-(((2,2,2-trifluoroethyl)amino)methyl)benzyl)urea], the IC50 was 100 to 1000 nM.
